Where two headings read alike, the source gives them in different places.
Key:
[1] = test system: scopolamine induced deficit (dementia/amnesia) in mice; assay: Single trial passive avoidance test, scopolamine induced amnesia; format: in vivo; details: Mus musculus, 24 h
Protocol: Single trial passive avoidance is widely used as experimental test to assess learning memory functions in rodents. […] Passive Avoidance Test (in vivo): Study was conducted in adult Swiss male mice of 3-4 months (wt. 20-25 g) which were kept in standard housing condition with 12h light and dark cycle. Food and water were available ad libitum. […] Passive avoidance test was studied by a computerized shuttle box (Columbus Instruments, Ohio, USA) provided with a software program PACS 30. The shuttle box comprises of two compartments, isolated by an automated door. […] Each mouse was placed in the bright compartment and on transfer into the dark compartment it was given an electric shock (0.5 mA for 5 s) through floor grid. Transfer of mice from bright to dark compartment was recorded as transfer latency time (TLT) in seconds. TLT was recorded in control and treated groups (1st Trial, acquisition) and then after 24 hours (2nd Trial, retention). An increase in the TLT on 2nd Trial (retention) as compared to 1st Trial (acquisition) was taken as the criterion for successful learning and memory (cognitive activity). Scopolamine induced deficit (Dementia): Scopolamine a muscarinic antagonist, known to produce impairment in cognitive functions (dementia) in human as well as in experimental animals, was used to produce deficit (no significant increase on 2nd trial) in passive avoidance learning. Scopolamine was administered 5 min prior to 1st trial. Reversal of scopolamine induced deficit i.e. significant increase in 2nd trial by test substance indicates potential anti-dementia activity. […]. Drug administration: Scopolamine was administered 5 min prior to 1st trial in test group. Each test compound was administered orally in dose of 20µmol/kg (1% aq. suspension in gum acacia) 1 hour prior to 2nd trial in scopolamine treated mice (n=5). Scopolamine control group received 1 ml/kg of vehicle (1% aq. suspension in gum acacia) orally. Scopolamine was administered 5 min prior to 1st trial in test group. […] Donepezil (10 mg/kg, po, as1% aqueous suspension in gum acacia) was used as standard drug and given 1 hour prior to 2nd trial in scopolamine treated mice. Statistical analysis: Mean values and standard error (S.E.) of mean were calculated for TLT and specific activity of AChE in the different regions of brain samples of each group. The significance of difference between the values of AChE activity and TLT between the groups was determined by one-way ANOVA test that followed by Dunnett's test. Table 4: Effect of the compounds on scopolamine induced amnesia in passive avoidance test

[2] = target: T1, Acetylcholinesterase (Rattus norvegicus, UniProt P37136); assay: Inhibitive effect on acetylcholinesterase activity (Ellman assay, rat brain homogenate supernatant); format: biochemical, rats; details: for % Cholinesterase Enzyme Activity: Control AChE activity = 0.014446 (µmol / mg of protein/min)
T1 construct: Aliquots of this supernatant was diluted in the ratio of 1:10 and used as a source of enzyme for the assay; from tissue; host or cells: whole brain of adult SD male rats; 10% homogenate with 1% Triton X-100, 100,000 x g supernatant
T1 sequence (P37136 32-614): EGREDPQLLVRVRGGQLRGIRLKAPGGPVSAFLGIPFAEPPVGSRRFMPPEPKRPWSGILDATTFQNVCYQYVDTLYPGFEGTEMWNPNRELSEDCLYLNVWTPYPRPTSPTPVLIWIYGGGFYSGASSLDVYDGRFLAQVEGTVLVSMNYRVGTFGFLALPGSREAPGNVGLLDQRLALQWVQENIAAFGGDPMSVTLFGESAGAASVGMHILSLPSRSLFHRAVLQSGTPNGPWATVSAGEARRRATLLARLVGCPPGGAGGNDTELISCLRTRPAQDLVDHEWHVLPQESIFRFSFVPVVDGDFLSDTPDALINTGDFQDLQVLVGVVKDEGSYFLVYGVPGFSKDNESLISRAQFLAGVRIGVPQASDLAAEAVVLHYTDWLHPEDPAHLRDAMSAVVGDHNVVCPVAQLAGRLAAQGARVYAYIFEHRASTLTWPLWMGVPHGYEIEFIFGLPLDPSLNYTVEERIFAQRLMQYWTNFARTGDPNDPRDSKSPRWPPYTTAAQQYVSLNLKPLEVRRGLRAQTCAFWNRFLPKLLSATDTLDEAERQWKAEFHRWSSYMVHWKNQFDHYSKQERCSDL
Protocol: The study was conducted in adult SD male rats (200-250 g). Rats were perfused under mild ether anesthesia through heart with ice cooled normal saline (0.9% NaCl) to reduce blood-borne cholinesterase from brain. After perfusion whole brain was taken out. 10% (w/v) homogenate of brain was prepared first by homogenizing in Ultra-Turrax T25 homogenizer at a speed of 9500 rpm thrice giving intervals for few seconds in between the runs, with sodium phosphate buffer (30 mmol/lit, pH 7.0). Sodium phosphate buffer was taken in a volume half to the final volume required for 10% homogenate. 1% Triton X-100 (1% w/v in 30 mmol/lit. sodium phosphate buffer, pH 7.0) is then added in a volume to make the final volume for 10% homogenate, slowly while stirring the homogenate on ice.
Kinetic profile of the enzyme activity was studied spectrophotometrically at 412 nm at an interval of 15 s. Assay for each sample was run in duplicate and each experiment was performed thrice.
The specific activity of AChE is expressed in µmoles/min/mg of protein.
[…] Tacrine (1µmol) was used as standard AChE inhibitor (standard control). The AChE inhibitory activity was calculated on the basis of % decrease change from control values i.e. AChE acivity without incubation with any standard or test drug.
Bovine serum albumin (BSA) was used as standard in the concentration of 1 mg/ml. was estimated in the range of 0.01-0. mg/ml.

[3] = % Learning in treated gp - % Learning in Scopolamine gp, test compound orally 20µmol/kg, Donepezil 10 mg/kg po, read-out: % Improvement in Learning
[4] = [2nd Trial - 1st trial/1st trial] x 100, scopolamine treated mice, test compound orally 20µmol/kg, Donepezil 10 mg/kg po, read-out: % Learning

**Q.** What does the source list for CCCCCCCNC(=O)Oc1ccc2ncccc2c1 [1b, heptyl-carbamic acid quinolin-6-yl ester]?
**A.** change in vivo at 20 µmol/kg [1, 3]: 107%; change in vivo at 20 µmol/kg [1, 4]: 140%

**Q.** For O=C(Nc1ccccc1Cl)Oc1ccc2ncccc2c1 [1c, (2-chloro-phenyl)-carbamic acid quinolin-6-yl ester], which change in vivo at 20 µmol/kg [1, 3] is on record?
**A.** The change in vivo at 20 µmol/kg was 123%.

**Q.** And the change in vivo at 20 µmol/kg [1, 4]?
**A.** The change in vivo at 20 µmol/kg was 157%.

**Q.** Which change in vivo at 20 µmol/kg [1, 3] does the source give for O=C(Nc1cccc(Br)c1)Oc1ccc2c(c1)CCCN2 [2c, (3-bromo-phenyl)-carbamic acid 1,2,3,4-tetrahydro-quinolin-6-yl ester] here?
**A.** Its change in vivo at 20 µmol/kg is 67.4%.

**Q.** What about the change in vivo at 20 µmol/kg [1, 4] of the same molecule?
**A.** The change in vivo at 20 µmol/kg was 101%.

**Q.** For CCCCCCNC(=O)Oc1ccc2c(c1)CCCN2Cc1ccccc1 [2h, hexyl-carbamic acid 1-benzyl-1,2,3,4-tetrahydro-quinolin-6-yl ester], which change in vivo at 20 µmol/kg [1, 3] is on record?
**A.** The change in vivo at 20 µmol/kg was 89.2%.

**Q.** And the change in vivo at 20 µmol/kg [1, 4]?
**A.** Its change in vivo at 20 µmol/kg is 123%.

**Q.** With O=C(Nc1ccccc1Cl)Oc1ccc2c(c1)CCCN2Cc1ccccc1 [2i, (2-chloro-phenyl)-carbamic acid 1-benzyl-1,2,3,4-tetrahydro-quinolin-6-yl ester] as the molecule, how does the change in vivo at 20 µmol/kg [1, 3] read?
**A.** The change in vivo at 20 µmol/kg was 89.6%.

**Q.** And the change in vivo at 20 µmol/kg [1, 4]?
**A.** The change in vivo at 20 µmol/kg was 123%.

**Q.** What about the IC50 [2] of the same molecule?
**A.** The IC50 was 3.31 µM.

**Q.** And the “% Anticholinesterase Enzyme Inhibition” value ([2]; Conc. 0.1 µm)?
**A.** Its value is 6.45%.

**Q.** And the “Cholinesterase Enzyme Activity” value ([2]; Conc. 0.1 µm)?
**A.** The value was 0.01351 µmol / mg of protein/min.

**Q.** And the “% Cholinesterase Enzyme Activity” value ([2]; Conc. 0.1 µm)?
**A.** The value was 93.54%.

**Q.** And the “% Anticholinesterase Enzyme Inhibition” value ([2]; Conc. 0.3 µm)?
**A.** The value was 16.12%.

**Q.** What about the “Cholinesterase Enzyme Activity” value ([2]; Conc. 0.3 µm) of the same molecule?
**A.** The value was 0.01211 µmol / mg of protein/min.

**Q.** And the “% Cholinesterase Enzyme Activity” value ([2]; Conc. 0.3 µm)?
**A.** The value was 83.87%.

**Q.** What about the “% Anticholinesterase Enzyme Inhibition” value ([2]; Conc. 1 µm) of the same molecule?
**A.** Its value is 25.80%.

**Q.** And the “Cholinesterase Enzyme Activity” value ([2]; Conc. 1 µm)?
**A.** Its value is 0.01071 µmol / mg of protein/min.

**Q.** And the “% Cholinesterase Enzyme Activity” value ([2]; Conc. 1 µm)?
**A.** The value was 74.19%.

**Q.** What about the “% Anticholinesterase Enzyme Inhibition” value ([2]; Conc. 3 µm) of the same molecule?
**A.** The value was 48.38%.

**Q.** What about the “Cholinesterase Enzyme Activity” value ([2]; Conc. 3 µm) of the same molecule?
**A.** The value was 0.007456 µmol / mg of protein/min.

**Q.** And the “% Cholinesterase Enzyme Activity” value ([2]; Conc. 3 µm)?
**A.** Its value is 51.61%.

**Q.** And the “% Anticholinesterase Enzyme Inhibition” value ([2]; Conc. 10 µm)?
**A.** Its value is 87.09%.

**Q.** What about the “Cholinesterase Enzyme Activity” value ([2]; Conc. 10 µm) of the same molecule?
**A.** Its value is 0.001864 µmol / mg of protein/min.

**Q.** And the “% Cholinesterase Enzyme Activity” value ([2]; Conc. 10 µm)?
**A.** The value was 12.90%.

**Q.** CN1CCCc2cc(OC(=O)Nc3ccc(Cl)c(C(F)(F)F)c3)ccc21 [2q, (4-chloro-3-trifluoromethyl-phenyl)-carbamic acid 1-methyl-1,2,3,4-tetrahydro-quinolin-6-yl ester] was tested. Which change in vivo at 20 µmol/kg [1, 3] did it give?
**A.** The change in vivo at 20 µmol/kg was 76%.

**Q.** And the change in vivo at 20 µmol/kg [1, 4]?
**A.** The change in vivo at 20 µmol/kg was 109%.

**Q.** With CN1CCCc2cc(OC(=O)Nc3ccc(Br)cc3)ccc21 [2r, (4-bromo-phenyl)-carbamic acid 1-methyl-1,2,3,4-tetrahydro-quinolin-6-yl ester] as the molecule, how does the change in vivo at 20 µmol/kg ([1]; po, read-out: % Improvement in Learning) read?
**A.** Its change in vivo at 20 µmol/kg is 62%.

**Q.** What about the change in vivo at 20 µmol/kg ([1]; po, read-out: % Learning) of the same molecule?
**A.** The change in vivo at 20 µmol/kg was 95.6%.

**Q.** What does the source list for COc1cc2c(cc1OC)C(=O)C(CC1CCN(Cc3ccccc3)CC1)C2 (centres unmarked) [DONEPEZIL, donepezil, reference compound]?
**A.** change in vivo at 20 µmol/kg [1, 3]: 134%; change in vivo at 20 µmol/kg [1, 4]: 168%

From patent EP1831172B1, “SUBSTITUTED CARBAMIC ACID QUINOLIN-6-YL ESTERS USEFUL AS ACETYLCHOLINESTERASE INHIBITORS” (priority 2004, dated 2006)
